Source: the NIST ThermoML archive (doi:10.1021/je9010486)

Test: cn = amount concentration of the nth substance listed, in mol/dm3
Conditions: 101 kPa, Liquid

OC[C@@H](O)[C@@H](O)[C@H](O)[C@H](O)CO [mannitol] + O
Conditions	mass density, 293.15 K [kg/m3]	mass density, 303.15 K [kg/m3]	mass density, 313.15 K [kg/m3]	mass density, 323.15 K [kg/m3]	viscosity, 293.15 K [mPa·s]	viscosity, 303.15 K [mPa·s]	viscosity, 313.15 K [mPa·s]	viscosity, 323.15 K [mPa·s]
c1 = 0.1	1004.82	1002.13	998.28	994.21	1.096	0.8694	0.6961	0.5782
c1 = 0.2	1010.89	1008.14	1004.5	999.82	1.143	0.9398	0.7468	0.6062
c1 = 0.3	1016.96	1014.15	1010.72	1005.23	1.203	0.986	0.7918	0.6356
c1 = 0.4	1023.03	1020.16	1016.94	1011.02	1.285	1.036	0.8201	0.6706
c1 = 0.5	1029.1	1026.17	1023.16	1017.33	1.336	1.085	0.8642	0.7104
c1 = 0.6	1035.17	1032.18	1029.38	1024.45	1.4	1.142	0.8954	0.7458
c1 = 0.7	1041.24	1038.19	1035.6	1030.32	1.472	1.197	0.9383	0.7849
c1 = 0.8	1047.31	1044.2	1041.82	1036.78	1.553	1.253	0.9934	0.8456

OC[C@@H](O)[C@H](O)[C@@H](O)CO [xylitol] + O
Conditions	mass density, 293.15 K [kg/m3]	mass density, 303.15 K [kg/m3]	mass density, 313.15 K [kg/m3]	mass density, 323.15 K [kg/m3]	viscosity, 293.15 K [mPa·s]	viscosity, 303.15 K [mPa·s]	viscosity, 313.15 K [mPa·s]	viscosity, 323.15 K [mPa·s]
c1 = 0.1	1003.31	1000.96	997.16	992.72	1.068	0.858	0.685	0.5687
c1 = 0.2	1008.5	1005.78	1002.18	997.77	1.089	0.8774	0.7057	0.5916
c1 = 0.3	1013.42	1010.64	1006.99	1002.55	1.128	0.9121	0.7305	0.6093
c1 = 0.4	1018.54	1015.65	1011.95	1007.51	1.165	0.9452	0.764	0.6384
c1 = 0.5	1023.6	1020.49	1016.87	1012.42	1.207	0.9829	0.7869	0.6596
c1 = 0.6	1028.66	1025.38	1021.78	1017.34	1.25	1.021	0.825	0.6779
c1 = 0.7	1033.72	1030.28	1026.7	1022.25	1.313	1.079	0.8476	0.7063
c1 = 0.8	1038.78	1035.17	1031.62	1027.17	1.362	1.123	0.8825	0.7344
c1 = 0.9	1043.84	1040.06	1036.54	1032.09	1.423	1.178	0.923	0.7618
c1 = 1	1048.9	1044.95	1041.45	1037	1.473	1.223	0.9632	0.7896
